Values after ≈ are worked out from the molar mass of the structure shown.
What was measured:
Tobacco mosaic virus [1] = test: Inhibition of Tobacco mosaic virus (TMV) replication using Nicotiana tabacum cv. K326 at 0.2 mg/mL; format: functional
Tobacco mosaic virus [2] = test: Inhibition of Tobacco mosaic virus (TMV) replication using Nicotiana tabacum cv. K326; format: functional, organism-based

Compound | inhibition at 200 µg/mL (Tobacco mosaic virus [1]) [%] | EC50 (Tobacco mosaic virus [2]) [µg/mL]
COc1cc(/C=C/C(=O)OC[C@H]2O[C@@H](Oc3ccc([C@@H]4OC[C@@H]5[C@H]4CO[C@H]5c4ccc(O)c(OC)c4)cc3OC)[C@H](O)[C@@H](O)[C@@H]2OC(=O)/C=C/c2ccc(O)c(OC)c2)ccc1O [PINORESINOL-4'-O-[4',6'-O-(E)-DIFERULOYL]-BETA-D-GLUCOPYRANOSIDE] | 50.3 | 190 (≈ 218 µM)
COc1cc(/C=C/C(=O)OC[C@H]2O[C@@H](Oc3c(OC)cc([C@@H]4OC[C@@H]5[C@H]4CO[C@H]5c4cc(OC)c(O)c(OC)c4)cc3OC)[C@H](O)[C@@H](O)[C@@H]2OC(=O)/C=C/c2ccc(O)c(OC)c2)ccc1O [SYRINGARESINOL-4'-O-[4',6'-O-(E)-DIFERULOYL]-BETA-D-GLUCOPYRANOSIDE] | 56.1 | 180 (≈ 193 µM)
COc1cc(/C=C/C(=O)OC[C@H]2O[C@@H](Oc3ccc([C@@H]4OC[C@@H]5[C@H]4CO[C@H]5c4ccc(O)c(OC)c4)cc3OC)[C@H](O)[C@@H](OC(=O)/C=C/c3ccc(O)c(OC)c3)[C@@H]2O)ccc1O [PINORESINOL-4'-O-[3',6'-O-(E)-DIFERULOYL]-BETA-D-GLUCOPYRANOSIDE] | 47.7 | 240 (≈ 275 µM)
COc1cc(/C=C/C(=O)OC[C@H]2O[C@@H](Oc3ccc([C@@H]4OC[C@@H]5[C@H]4CO[C@H]5c4ccc(O)c(OC)c4)cc3OC)[C@H](O)[C@@H](O)[C@@H]2O)ccc1O [PINORESINOL-4'-O-[6'-O-(E)-FERULOYL]-BETA-D-GLUCOPYRANOSIDE] | 34.3 | –

Reference: ChEMBL document CHEMBL3044955, “Inhibitory activity against tobacco mosaic virus (TMV) replication of pinoresinol and syringaresinol lignans and their glycosides from the root of Rhus javanica var. roxburghiana” (J Agric Food Chem, 2007)
